The results in this text go back to ChEMBL document CHEMBL5724696, “Autophagy assay results for EUbOPEN Chemogenomics Library” (2024).

Common to all, as to type: functional, Homo sapiens
For experiment [1], the system named is U2OS. The experiment in a line: (§1) Here: values are normalized to the positive (DMSO; basel flux = defined as 100% suppression) and negative (250nM Torin1; mTOR inhibitor; maximal inducer of autophagy defined as 0% suppression) control compounds and represented as % of ER-phagy suppression. […] The impact of autophagy induction on cells is complex and depends on the affected target. […] Of note, treatment concentrations may be sub-optimal for specific compounds, leading to false negative annotations. Conditions: Compound Concentration 1 uM, Culturing Media DMEM, 1 % Penicillin/Streptomycin, 10% Fetal bovin serum Add-On: blasticidin, Screening Media Control DMEM, 10% Fetal bovin serum Add-On: 1 µg/ml Doxycyclin, Screening Media Samples DMEM, 10% Fetal bovin serum Add-On: 1 µg/ml Doxycyclin 250nM Torin1.

The subject of experiment [2] is U2OS. The description is as §1. Particulars: Compound Concentration 1 uM, Culturing Media DMEM, 1 % Penicillin/Streptomycin, 10% Fetal bovin serum Add-On: blasticidin, Screening Media Control DMEM, 10% Fetal bovin serum Add-On: 1 µg/ml Doxycyclin, Screening Media Samples DMEM, 10% Fetal bovin serum Add-On: 1 µg/ml Doxycyclin 250nM Torin1. The source holds these as a separate data set.

The subject of the next experiment is TERT-RPE1. Description: (§2) Here: values are normalized to the negative (DMSO; defined as 0% autophagy induction) and positive (250nM Torin1; mTOR inhibitor; defined as maximal inducer of autophagy = 100%) control compounds and represented as % of autophagy induction. […] The impact of autophagy induction on cells is complex and depends on the affected target. As such, the magnitude of a phenotype may not be equally mirrored in the %-value of autophagy induction and vice versa. The dynamics of the induction may indicate the mode of activation: e.g. activation via phosphorylation or a signaling cascade may occur fast, while activation via transcription factors may take considerably longer. […] Of note, treatment concentrations may be sub-optimal for specific compounds, leading to false negative annotations. Particulars: Culturing Media DMEM/F12 (1:1), 1 % Penicillin/Streptomycin, 10% Fetal bovin serum Add-On: No, Screening Media Control DMEM/F12 (1:1), Screening Media Samples DMEM/F12 (1:1).

Experiment [3] has as its system U2OS. The description is as §2. Conditions: Culturing Media DMEM, 1 % Penicillin/Streptomycin, 10% Fetal bovin serum Add-On: No, Screening Media Control DMEM, Screening Media Samples DMEM.
Experiment [4] concerns U2OS. The experiment is described as §2. Particulars: Culturing Media DMEM, 1 % Penicillin/Streptomycin, 10% Fetal bovin serum Add-On: No, Screening Media Control DMEM, Screening Media Samples DMEM. This is another data set of the same source.
The mark [5] stands for this setting: Compound Concentration 0.5 uM, Timepoint 12 hours.
[6] abbreviates: Compound Concentration 0.5 uM, Timepoint 24 hours.
Setting [7] is: Compound Concentration 0.5 uM, Timepoint 36 hours.
The mark [8] stands for this setting: Compound Concentration 0.5 uM, Timepoint 60 hours.
Setting [9] is: Compound Concentration 2 uM, Timepoint 12 hours.
Setting [10] is: Compound Concentration 2 uM, Timepoint 24 hours.
The mark [11] stands for this setting: Compound Concentration 2 uM, Timepoint 36 hours.
[12] abbreviates: Compound Concentration 2 uM, Timepoint 60 hours.
[13] abbreviates: Compound Concentration 10 uM, Timepoint 12 hours.
[14] abbreviates: Compound Concentration 10 uM, Timepoint 24 hours.
Where [15] appears, read: Compound Concentration 10 uM, Timepoint 36 hours.
Setting [16] is: Compound Concentration 10 uM, Timepoint 60 hours.

In the case of `CCCCNc1ncc(-c2ccc(CN3CCOCC3)cn2)c(N[C@H]2CC[C@H](O)CC2)n1`, the ER-phagy suppression is listed as -8.957% with U2OS [1] (Timepoint 12 hours); -7.3145% in the experiment on U2OS [1] (Timepoint 24 hours); 4.583% in the experiment on U2OS [1] (Timepoint 36 hours); 12.8118% with U2OS [1] (Timepoint 60 hours); -5.509% with U2OS [2] (Timepoint 12 hours); -21.7145% in the experiment on U2OS [2] (Timepoint 24 hours). Also, the ER-phagy suppression with U2OS [2] (Timepoint 36 hours) was -31.345%; with U2OS [2] (Timepoint 54 hours), -19.8135%.

For `Cn1cnc2c(F)c(Nc3ccc(Br)cc3Cl)c(C(=O)NOCCO)cc21` [SELUMETINIB], the ER-phagy suppression in the experiment on U2OS [1] (Timepoint 12 hours) is given as 8.54%; with U2OS [1] (Timepoint 24 hours), 20.3816%; in the experiment with U2OS [1] (Timepoint 36 hours), 25.3525%; in the experiment on U2OS [1] (Timepoint 60 hours), 22.2273%; in the experiment on U2OS [2] (Timepoint 12 hours), -10.3683%; with U2OS [2] (Timepoint 24 hours), 3.869%. Besides, the figures for the ER-phagy suppression with U2OS [2] (Timepoint 36 hours) and with U2OS [2] (Timepoint 54 hours) were 4.29% and 11.1979%, respectively.

As for `CCOc1cc(N2CCC(O)CC2)ccc1Nc1ncc2c(n1)N(C)c1ccccc1C(=O)N2C`, the ER-phagy suppression in the experiment with U2OS [1] (Timepoint 12 hours) was 41.1735%; with U2OS [1] (Timepoint 24 hours) it was 16.7232%; with U2OS [1] (Timepoint 36 hours) it was 17.4074%; with U2OS [1] (Timepoint 60 hours), 10.8345%; in the experiment on U2OS [2] (Timepoint 12 hours) it was -49.4363%; with U2OS [2] (Timepoint 24 hours) it was -63.2462%. The values for the ER-phagy suppression with U2OS [2] (Timepoint 36 hours) and with U2OS [2] (Timepoint 54 hours) were -50.7543% and -40.8997%, respectively.

On to `CN1CCN(C(=O)C(C)(C)c2ccc(C(=O)Nc3cn4cc(-c5ccncc5)ccc4n3)cc2)CC1` [T3-CLK], for which the ER-phagy suppression in the experiment on U2OS [1] (Timepoint 12 hours) came out at 46.4649%; with U2OS [1] (Timepoint 24 hours), 79.2605%; in the experiment with U2OS [1] (Timepoint 36 hours) it was 82.4738%; in the experiment with U2OS [1] (Timepoint 60 hours), 83.9667%; with U2OS [2] (Timepoint 12 hours) it was 58.6484%; in the experiment with U2OS [2] (Timepoint 24 hours) it was 70.9328%. Also, the results for the ER-phagy suppression in the experiment with U2OS [2] (Timepoint 36 hours) and with U2OS [2] (Timepoint 54 hours) were 70.8309% and 76.3625%, respectively.

For `Cl.Cl.Nc1nccc(-c2c(-c3ccc(F)cc3)ncn2C2CCCCC2)n1`, the ER-phagy suppression in the experiment with U2OS [2] (Timepoint 12 hours) was determined as 12.007%; in the experiment on U2OS [2] (Timepoint 24 hours), 14.1245%; with U2OS [2] (Timepoint 36 hours), 19.9643%; in the experiment on U2OS [2] (Timepoint 54 hours) it was 25.2011%.

As for `CCC(=O)N1CCN(c2ccc(-n3c(=O)ccc4cnc5ccc(-c6cnc7ccccc7c6)cc5c43)cc2C(F)(F)F)CC1` [TORIN1], the ER-phagy suppression in the experiment with U2OS [2] (Timepoint 12 hours) is given as 3.915%; in the experiment with U2OS [2] (Timepoint 24 hours) it was -7.7479%; in the experiment with U2OS [2] (Timepoint 36 hours), -6.712%; with U2OS [2] (Timepoint 54 hours) it was -3.9465%.

On to `C[C@H](CO)Nc1nc(SCc2cccc(Cl)c2F)nc2[nH]c(=O)sc12`, for which the autophagy induction with TERT-RPE1 (setting [5]) is -10.6276%; in the experiment on TERT-RPE1 (setting [6]), -12.9518%; in the experiment on TERT-RPE1 (setting [7]) it was -15.2456%; with TERT-RPE1 (setting [8]), -20.3989%; with TERT-RPE1 (setting [9]), -5.728%; in the experiment with TERT-RPE1 (setting [10]) it was -8.929%. Further, the autophagy induction is -11.3534% in the experiment on TERT-RPE1 (setting [11]); -17.566% in the experiment with TERT-RPE1 (setting [12]); -4.7585% with TERT-RPE1 (setting [13]); -7.211% with TERT-RPE1 (setting [14]); -11.193% in the experiment with TERT-RPE1 (setting [15]); -13.8782% in the experiment on TERT-RPE1 (setting [16]). Besides, the autophagy induction in the experiment with U2OS [3] (setting [5]) was 5.635%; in the experiment on U2OS [3] (setting [6]), -1.036%; in the experiment on U2OS [3] (setting [7]) it was -0.662%; in the experiment with U2OS [3] (setting [8]), 0.3997%; with U2OS [3] (setting [9]), -11.0736%; in the experiment on U2OS [3] (setting [10]), -4.995%. For the same molecule, the autophagy induction is given as -2.19% in the experiment on U2OS [3] (setting [11]); -0.5002% in the experiment on U2OS [3] (setting [12]); 9.288% in the experiment on U2OS [3] (setting [13]); 6.328% with U2OS [3] (setting [14]); 3.708% with U2OS [3] (setting [15]); 1.649% in the experiment on U2OS [3] (setting [16]). The autophagy induction is -2.252% in the experiment with U2OS [4] (setting [5]); -5.227% in the experiment on U2OS [4] (setting [6]); -4.361% with U2OS [4] (setting [7]); 0.5148% in the experiment on U2OS [4] (setting [8]); -3.135% in the experiment on U2OS [4] (setting [9]); -6.665% with U2OS [4] (setting [10]). Further, the autophagy induction with U2OS [4] (setting [11]) is on record as -3.053%; with U2OS [4] (setting [12]), -3.815%; in the experiment on U2OS [4] (setting [13]), -3.826%; in the experiment with U2OS [4] (setting [14]), 1.119%; with U2OS [4] (setting [15]), 5.199%; in the experiment with U2OS [4] (setting [16]), 9.3581%.
